Measurements: patent US11324217B2, “Preparation method and application of polyketides bearing the trans-fused decalin skeleton” (QINGDAO AGRICULTURAL UNIVERSITY, priority 2019, dated 2022)

How the values were obtained:
[1] = tested on: Echinochloa crusgalli seedlings; test: Herbicidal activity test (PPA method), growth inhibition of radicles of weed seedlings; format: in vivo; settings: Echinochloa crus-galli, 48 h, radicle length after 2 days in agar, read-out: Growth inhibition rates (%) to radicles of Echinochloa crusgalli seedlings; for inhibition at 2.5 µg/mL: 2.5 μg/mL; for inhibition at 5 µg/mL: 5 μg/mL; for inhibition at 10 µg/mL: 10 μg/mL
Excerpt: The method of grinded plant tissue powder mixed with agar (PPA method), established by Luo Xiaoyong, et al. (Journal of Qingdao Agricultural University, 2007, 24: 267-270) is used to quickly determine the herbicidal activity of compounds. It has the advantages of high sensitivity, easy operation, good repeatability, and large-throughput screening. It is also easy to observe the growth status of indicator plants. Luo Xiaoyong used this method to quickly determine the herbicidal activity of the leaves of 40 garden plants. Zhang Lijuan (Plant Protection, 2016, 42: 63-66) and Su Fansheng (Applied Chemistry, 2014, 31: 290-295) quickly determined the herbicidal activity of corn stalks and imidazole compounds by the PPA method with Echinochloa crusgalli as the test weed. Zhang Yun (Journal of Microbiology, 2015, 55: 292-298) and Li Shuai (Journal of Agricultural and Food Chemistry, 2014, 62: 8997-9001) studied the inhibitory effect of microbial secondary metabolites on the root growth of Amaranthus retroflexus by using Amaranthus retroflexus as the test weed.
Weed seeds were first sterilized with 0.2% sodium hypochlorite for 15 min, then washed repeatedly with sterile distilled water, soaked for 4-6 h, and germinated for 12 h in a medical tray with sterile wet filter paper in a dark place.
The compound to be tested was dissolved in dimethyl sulfoxide (DMSO) to obtain a 4 mg/mL solution, and the 4 mg/mL solution was then diluted with 50% DMSO aqueous solution to different concentrations for later use.
1 mL of the sample solution and 99 mL of sterile agar aqueous solution were mixed well, and poured into three 25 mL small beakers to be condensed. Needle-nose tweezers were used to insert 5 small holes on the surface of the condensed agar, the germinated test weed seedlings with 4-5 radicles were clamped separately and inserted gently and vertically into the small holes. Each beaker had five pieces of such agar and the operation was repeated for three times. Then, all beakers were sealed with tin foil and placed in a sterilized small carton, and the sterilized small carton was then placed in an artificial climate box for shading culture for 2 days. The artificial climate box set an automatic cycle of 14 h lighting (25° C.) and 10 h shading (20° C.), and the relative humidity in the box was set at 60%. After 2 days, the lengths of the radicle and hypocotyl were investigated to calculate the weed growth inhibition rate.
The calculation equations were as follows (Chinese Agricultural Science Bulletin, 2013, 29: 177-182): Growth=length of radicle (hypocotyl) after treatment−length of radicle (hypocotyl) before treatment; Inhibition rate (%)=[(average growth of control−average growth of treatment)/average growth of control]×100%.

Brine shrimp = test: Lethal activity of Brine shrimp; format: in vivo; settings: concentration of 500 μg/mL; 24 h incubation at room temperature
Protocol: Brine shrimp is an aquatic animal that is highly sensitive to toxic substances. It can be used as a model organism to preliminary evaluate the toxic effects of compounds on the environment. Masi, M. et al. used Brine shrimp to preliminary evaluate the toxicity of the herbicidal active compounds Colletochlorins E and F (Journal of Agricultural and Food Chemistry, 2017, 65: 1124-1130).
100 mg of Brine shrimp eggs were placed in a 500 mL beaker, 400 mL of artificial seawater was added, the Brine shrimp eggs were slowly inflated with an air pump and hatched at room temperature for 24 h, the egg shells and unhatched eggs were removed, and the Brine shrimps were further incubated for 24 h.
The compound to be tested was dissolved in DMSO to obtain a 20 mg/mL mother liquor, and the mother liquor was then sequentially diluted twice to obtain 10, 5 and 2.5 mg/mL solutions for later use.
195 μL of artificial seawater containing 10-15 Brine shrimps were added into each well of a 96-well cell culture plate to make a test culture plate. […] After incubation at room temperature for 24 h, the number of Brine shrimp deaths was counted under a binocular dissecting microscope. […]

| SMILES | inhibition at 2.5 µg/mL [1] [%] | inhibition at 5 µg/mL [1] [%] | inhibition at 10 µg/mL [1] [%] | lethal activity of Brine shrimp (Brine shrimp) |
| --- | --- | --- | --- | --- |
| CCOCN(C(=O)CCl)c1c(C)cccc1CC [Acetochlor, reference compound] | 54.8 ± 1.3 | 65.6 ± 1.8 | 76.1 ± 1.4 |  |
| CC1=C[C@H](O)[C@H]2C[C@@H](C)CC[C@@H]2[C@@]1(C)C(=O)CCO [Compound 1] | 52.7 ± 1 | 64.7 ± 0.9 | 81.5 | do not exhibit the lethal activity |
| C[C@H]1CC[C@H]2[C@@H](C=C[C@@](C)(O)[C@]2(C)C(=O)CCOC(=O)Cc2ccc(O)c(O)c2)C1 [Compound 2] | 41 ± 0.8 | 55.4 ± 1.2 | 79.6 | do not exhibit the lethal activity |
